Assays:
[1] = biological target: T1, Aβ40 (Homo sapiens, UniProt P05067); assay: ThT aggregation kinetics assay of Aβ40 with APP (glyco)peptides; conditions: 50 mM phosphate buffer pH 7.4, 20 µM ThT, 37°C
T1 construct: Aβ40 peptide was synthesized on a PS3 solid phase peptide synthesizer; made in house; host or cells: chemical solid-phase peptide synthesis (Fmoc), no expression host
Method: Lyophilized peptide powder was dissolved in aqueous NaOH solution (2 mM), and the pH was adjusted to ∼11 by using 100 mM NaOH solution. The solution was sonicated for 1 h in an ice−water bath and then filtered through a 0.22 μm filter (Millipore) and kept on ice before use. The concentration of the peptide solution was determined by using the tyrosine UV absorbance at 280 nm (ε = 1280 M^−1 cm^−1).
The aggregation kinetics of Aβ40 in the absence and presence of APP (glyco)peptides was performed using ThT binding assay. The monomerized Aβ40 peptide solution was diluted to a final concentration of 10 µM in 50 mM phosphate buffer (pH 7.4) and 20 µM ThT dye. For the co-incubation assays with APP (glyco)peptides, APP stock solutions of 120 µM were added to the prepared Aβ40 for final (glyco) peptide concentrations of 10 µM or 50 µM and Aβ40 concentration of 10 µM in 50 mM phosphate buffer (pH 7.4) with 20 µM ThT dye. […] The plate was sealed with a microplate cover and loaded into a Gemini SpectraMax EM fluorescence plate reader (Molecular Devices, Sunnyvale, CA) and incubated at 37°C. The ThT fluorescence was measured from the bottom of the plate at 10 min intervals, with 5 s of shaking, and with an excitation and emission wavelengths of 440 and 480 nm, respectively. […]
°C. ThT fluorescence was measured in 10 minute intervals.

[2] = Analytical RP-HPLC retention time, read as hydrophobicity/hydrophilicity; assay type: physicochemical; conditions: C18 (Phenomenex Aeris Peptide C18 150 x 4.6 mm, 0.8 ml/min), 0.1% TFA water/acetonitrile, 0-60% B over 30 min, 214 nm, Supplementary S2-S9
Method: Purification of all (glyco)peptides and their corresponding analyses were performed on a 1,260 Agilent Infinity system. The analytical RP-HPLC method uses a Phenomenex Aeris Peptide C18 column (150 mm × 4.6 mm, 3.6 μm, 100 Å) at 0.8 ml/min flow rate or a Vydac Denali C18 column (250 mm × 4.6 mm, 5 μm, 120Å) at 1 ml/min flow rate, with 0.1% TFA in water (A) and 0.1% TFA in acetonitrile (B) as the eluents. The elution gradient for analytical RP-HPLC purification was 0–60% B over 30 min. The preparative RP-HPLC method uses the Grace Vydac monomeric C18 column (250 mm × 22 mm, 15–20 μm, 300Å) at 10 ml/min flow rate, with 0.1% TFA in water (A) and 0.1% TFA in acetonitrile (B) as the eluents. The elution gradient for preparative RP-HPLC purification was 0–50% over 110 min. The (glyco)peptides were detected at 214 nm by using a UV-Vis detector (Agilent 1,260 Infinity DAD). Purified (glyco)peptides were characterized by matrix-assisted laser desorption ionization time-of-flight mass spectrometry (MALDI-TOF MS) with a Voyager-DE STR system or a Bruker Microflex system, using α-cyano-4-hydroxycinnamic acid as matrix.
Automated solid-phase peptide synthesis (SPPS) approach on Tentagel S RAM resin was used to assemble the APP (glyco)peptides. […]

[3] = CD spectroscopy, secondary structure content by BeStSel; assay type: physicochemical; conditions: CD, BeStSel, 0.065 mg/ml, 25°C
Method: All (glyco)peptides were analyzed for their secondary structure using circular dichroism (CD) spectroscopy on a Jasco-810 spectropolarimeter (Jasco, Easton, MD) in three solvent systems: water, 10 mM sodium phosphate buffer (pH 7.4), and 50% trifluoroethanol (TFE) in water (v/v) mixture. The CD spectra were recorded using a quartz cell of 1 mm optical path length over a wavelength range of […] with a scanning speed of 100 nm/min and a response time of 4 s at 25°C. A concentration of 0.065 mg/ml, determined using the analytical RP-HPLC method, gave the […] signal-to-noise ratio for all (glyco)peptides. All spectra were baseline-corrected to account for the signal contribution from solvent and then converted into molar ellipticity (deg cm^2 dmol^−1) ([Sreerama and Woody, 2000]). Lastly, the percentages of all secondary structures were determined using the BeStSel method ([Micsonai et al., 2018]; [Singh et al., 2021]).
To study the role of O-glycosylation on the conformation of APP glycopeptides, circular dichroism (CD) spectroscopy was used to probe the secondary structure in three different solvents, water, sodium phosphate buffer (10 mM, pH 7.4), and 50% trifluoroethanol (TFE) in water (v/v) (Figure 1). The spectra were further analysed for secondary structure estimations by Beta Structure Selection (BeStSel) method, specifically designed for the analysis of beta sheet-rich proteins (Table 2) ([Micsonai et al., 2015], [2018]).

[4] = biological target: T2, Recombinant human BACE-1 (rhBACE-1) (Homo sapiens, UniProt P56817); assay: Proteolytic cleavage of APP (glyco)peptides by BACE-1, RP-HPLC peak integration; assay type: biochemical; conditions: 100 μM substrate, 50 nM rhBACE-1, 0.1 M sodium acetate pH 4.0, 24 h, 37°C, dark; RP-HPLC peak integration at 214 nm, averaged from two injections, SD <5%
T2 construct: purchased R&D Systems #ES004 and #931-AS, respectively (so in the source)
T2 sequence (P56817 46-457 limits assumed): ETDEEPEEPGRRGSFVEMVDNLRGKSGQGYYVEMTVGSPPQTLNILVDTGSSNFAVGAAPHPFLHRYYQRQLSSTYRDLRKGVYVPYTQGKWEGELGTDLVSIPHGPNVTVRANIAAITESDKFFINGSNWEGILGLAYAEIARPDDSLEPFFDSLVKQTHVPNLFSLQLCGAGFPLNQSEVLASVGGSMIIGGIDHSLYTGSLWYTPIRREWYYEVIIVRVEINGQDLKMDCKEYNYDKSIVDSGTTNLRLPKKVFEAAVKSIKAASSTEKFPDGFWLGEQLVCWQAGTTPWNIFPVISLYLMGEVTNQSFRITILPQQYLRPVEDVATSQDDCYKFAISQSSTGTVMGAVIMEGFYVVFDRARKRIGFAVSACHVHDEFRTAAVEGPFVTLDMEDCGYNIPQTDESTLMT
Method: All APP-based substrates were prepared as 10 mM stocks in DMSO. Before proteolysis, the activity of BACE-1 was verified by the reaction with the fluorogenic BACE-1substrate Mca-[…](Dnp)RR-NH2 ([Koike et al., 1999]) as per the manufacturer’s instructions. For the proteolysis assay, APP-based substrates were diluted in BACE-1 activity buffer (0.1 M sodium acetate, pH 4.0) to the final assay concentration of 100 μM. BACE-1 was diluted to 50 nM final concentration. Reactions were incubated for 24 h at 37°C in the dark. After the incubation period, the enzyme cleavage solutions containing APP-based substrates and BACE-1 were analyzed using the analytical RP-HPLC method on the Aeris C18 column with 0.1% TFA in water (A) and 0.1% TFA in acetonitrile (B) as eluents and 0–60% B as the elution gradient over 30 min with a flow rate of 0.8 ml/min, and detection at 214 nm or the Vydac Denali C18 column with 0.1% TFA in water (A) and 0.1% TFA in acetonitrile (B) as eluents and 0–60% B as the elution gradient over 30 min with a flow rate of 1 ml/min, and detection at 214 nm. The identity of intact and cleaved (N- and C-terminal) fragments of (glyco)peptides in the absence and presence of BACE-1 (β-secretase) was confirmed by MALDI-TOF and their percentages were evaluated by the integration of the RP-HPLC peaks (averaged from two injections).
Glycosylation can alter substrate recognition and impact enzyme activity in either a positive (enhancing) or negative (inhibiting) manner ([Goettig, 2016]; [Goth et al., 2018]). The mucin-type O-linked glycosylation of a protein may not only affect its conformation but also affect its transport and localization in the cell ([Matsuura et al., 1989]; [Chen et al., 2002]). Proteases are highly regulated by post-translational modifications and drive fate, localization, and activity of many proteins ([Bond, 2019]). Certain mutations can also affect the subcellular localization of the cleavage event by crucial proteases and mediate a different cellular mechanism for the protein ([Haass et al., 1995]). […] Therefore, similar enzyme cleavage assays with BACE-1 were set up to explore the effect of the Swedish mutation, length of the amino acid sequence, glycan position and valency on the proteolytic susceptibility of 3–12. BACE1 produced two fragments upon cleavage of (glyco)peptides, for which yields were determined after 24 h treatment. The yields of intact peptide and fragments were evaluated by the RP-HPLC peaks integration (Table 3, and the Supplementary Material S20–S32).
3. Enzyme cleavage assays with APP (glyco)peptides 3-12 by RP-HPLC and MALDI-TOF MS
For the BACE1 enzyme cleavage assay, APP-based (glyco)peptide substrates were diluted in BACE1 activity buffer and incubated with BACE1 for 24 h at 37 °C in the dark. After the incubation period, the enzyme cleavage solutions containing APP-based (glyco)peptide substrates and BACE1 were analyzed using analytical RP-HPLC.
RP-HPLC gradient on Phenomenex Aeris Peptide C18 column (150 x 4.6 mm, 3.6 µm, 100Å):
Eluents were 0.1% TFA in water (A) and 0.1% TFA in acetonitrile (B). The elution gradient was 0-60%B in 30 minutes with a flow rate of 0.8 mL/min. Detection was at λ = 214 nm.
S*/T*= Ser(-α-GalNAc) 1/Thr(-α-GalNAc) 2
(a) APP665-680, 3 in activity buffer
(b) APP665-680 (3) + BACE1 in activity buffer […]

[5] = (B) 10 mM sodium phosphate buffer, pH 7.4

T1 sequence (P05067 672-711 limits assumed): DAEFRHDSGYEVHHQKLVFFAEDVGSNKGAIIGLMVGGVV

CC(=O)N[C@H]1C(O)O[C@H](CO)[C@H](O)[C@@H]1O (mixture of isomers) [GalNAc, N-acetylgalactosamine]
Δt50 (t50 with additive - Aβ40 t50) ([1]; additive 10 and 50 µM, Aβ40 10 µM): < 0.5 h

Aβ40: amyloid-β 40 peptide made by Fmoc SPPS, model peptide for studying protein aggregation
half time (t 50) of the growth phase of Aβ40 amyloidogenesis ([1]; Aβ40 10 μM alone, triplicate): approximately 8 h

IKT*EEISEVKM∼DAEFRHDSG [compound 8, native APP 661-680 glycopeptide with O-GalNAc on Thr^663]
RP-HPLC t R [2]: 14.4 min
RC (%) random coil ([3]; (A) water): 87.4%
α-H (%) α-helix ([3]; (A) water): 1.4%
β-AP (%) anti-parallel β-sheet ([3]; (A) water): 5.4%
β-P (%) parallel β-sheet ([3]; (A) water): 0.0%
β-T (%) β-turn ([3]; (A) water): 5.7%
RC (%) random coil [3, 5]: 30.4%
α-H (%) α-helix [3, 5]: 8.8%
β-AP (%) anti-parallel β-sheet [3, 5]: 42.6%
β-P (%) parallel β-sheet [3, 5]: 0.0%
β-T (%) β-turn [3, 5]: 18.3%
RC (%) random coil ([3]; (C) TFE/water = 1:1 (v/v)): 8.3%
α-H (%) α-helix ([3]; (C) TFE/water = 1:1 (v/v)): 85.7%
β-AP (%) anti-parallel β-sheet ([3]; (C) TFE/water = 1:1 (v/v)): 0.0%
β-P (%) parallel β-sheet ([3]; (C) TFE/water = 1:1 (v/v)): 0.0%
β-T (%) β-turn ([3]; (C) TFE/water = 1:1 (v/v)): 6.0%
BACE-1 activity, Cleaved (%) [4]: 8.46%
BACE-1 activity, Recovered (%) [4]: 91.5%
